According to patent US11464770B2, “Anticancer pharmaceutical composition” (NATIONAL CANCER CENTER, priority 2016, dated 2022):
Where two headings read alike, the source gives them in different places.

How the values were obtained:
[1] = system: colorectal cancer cell lines (e.g. DLD-1, HCT 116, SW620, HCT-15, HCT-8, RKO); test: Cell based assay, cell viability (CellTiter-Glo), colorectal cancer cell lines
How it was run: (§1)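 Following a 24 h pre-culture in plates, cells receive test compound (final 0 to 2 μM) for 72 hours. Luminescent quantitation of cellular ATP gives viability.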

liver cancer cell lines = test: Cell based assay, cell viability (CellTiter-Glo), liver cancer cell lines; conditions: Homo sapiens, SK-HEP1; SK-HEP-1 cell line
How it was run: as §1

[2] = Homo sapiens, DLD-1, 72 hours treatment, read-out: IC50, colorectal cancer cell line DLD-1
[3] = Homo sapiens, HCT 116, 72 hours treatment, read-out: IC50, colorectal cancer cell line HCT 116
[4] = Homo sapiens, HCT-8, 72 hours treatment, read-out: IC50, colorectal cancer cell line HCT-8
[5] = Homo sapiens, HCT-15, 72 hours treatment, read-out: IC50, colorectal cancer cell line HCT-15
[6] = Homo sapiens, HT-29, 72 hours treatment, read-out: IC50, colorectal cancer cell line HT-29
[7] = Homo sapiens, LoVo, 72 hours treatment, read-out: IC50, colorectal cancer cell line LoVo
[8] = Homo sapiens, SW480, 72 hours treatment, read-out: IC50, colorectal cancer cell line SW480
[9] = Homo sapiens, SW-620, SW620, 72 hours treatment, read-out: IC50, colorectal cancer cell line SW620
[10] = RKO, 72 hours treatment, read-out: IC50, colorectal cancer cell line RKO
[11] = Homo sapiens, DLD-1 cells, 72 hours treatment, read-out: IC50, colorectal cancer cell line DLD-1
[12] = Homo sapiens, HCT 116 cells, 72 hours treatment, read-out: IC50, colorectal cancer cell line HCT 116
[13] = Homo sapiens, HCT-8 cells, 72 hours treatment, read-out: IC50, colorectal cancer cell line HCT-8
[14] = Homo sapiens, HCT-15 cells, 72 hours treatment, read-out: IC50, colorectal cancer cell line HCT-15
[15] = Homo sapiens, HT-29 cells, 72 hours treatment, read-out: IC50, colorectal cancer cell line HT-29
[16] = Homo sapiens, LoVo cells, 72 hours treatment, read-out: IC50, colorectal cancer cell line LoVo
[17] = Homo sapiens, RKO cells, 72 hours treatment, read-out: IC50, colorectal cancer cell line RKO
[18] = Homo sapiens, SW480 cells, 72 hours treatment, read-out: IC50, colorectal cancer cell line SW480
[19] = Homo sapiens, SW-620, SW620 cells, 72 hours treatment, read-out: IC50, colorectal cancer cell line SW620

| Compound | IC50 [1, 2] | IC50 [1, 3] | IC50 [1, 4] | IC50 [1, 5] | IC50 [1, 6] | IC50 [1, 7] | IC50 [1, 8] | IC50 [1, 9] | IC50 [1, 10] | IC50 (liver cancer cell lines) | IC50 [1, 11] | IC50 [1, 12] | IC50 [1, 13] | IC50 [1, 14] | IC50 [1, 15] | IC50 [1, 16] | IC50 [1, 17] | IC50 [1, 18] | IC50 [1, 19] |
| --- | --- | --- | --- | --- | --- | --- | --- | --- | --- | --- | --- | --- | --- | --- | --- | --- | --- | --- | --- |
| CC(=O)c1c([S+]([O-])Cc2ccc(C(C)(C)C)cc2)[nH]c2c(Br)ccc(Cl)c2c1=O (stereo not drawn) [Compound 60, 3-acetyl-8-bromo-2-((4-(tert-butyl)benzyl)sulfinyl)-5-chloroquinolin-4(1H)-one] | 1480 nM | 1940 nM | > 2000 nM | 1800 nM | > 10000 nM | > 2000 nM | > 2000 nM | > 2000 nM | > 2000 nM | > 2000 nM | – | – | – | – | – | – | – | – | – |
| CC(=O)c1c([S+]([O-])Cc2cccnc2)[nH]c2c(Br)ccc(Cl)c2c1=O (stereo not drawn) [Compound 84, 3-acetyl-8-bromo-5-chloro-2-((pyridin-3-ylmethyl)sulfinyl)quinolin-4(1H)-one] | – | – | – | – | – | – | – | – | – | 1070 nM | 930 nM | 1160 nM | 1300 nM | 1510 nM | > 10000 nM | 1960 nM | 1270 nM | 1550 nM | 1230 nM |
| CC(=O)c1c([S+]([O-])Cc2ccc([N+](=O)[O-])cc2)[nH]c2c(Br)ccc(Cl)c2c1=O (stereo not drawn) [Compound 33, 3-acetyl-8-bromo-5-chloro-2-((4-nitrobenzyl)sulfinyl)quinolin-4(1H)-one] | 940 nM | 1330 nM | 1650 nM | 1530 nM | > 10000 nM | > 2000 nM | > 2000 nM | 1510 nM | 1500 nM | 1080 nM | – | – | – | – | – | – | – | – | – |
| COc1cc(C[S+]([O-])c2[nH]c3c(Br)ccc(Cl)c3c(=O)c2C(C)=O)cc(OC)c1 (stereo not drawn) [Compound 59, 3-acetyl-8-bromo-5-chloro-2-((3,5-dimethoxybenzyl)sulfinyl)quinolin-4(1H)-one] | 890 nM | 1110 nM | 1500 nM | 1270 nM | > 10000 nM | > 2000 nM | > 2000 nM | 1350 nM | 1560 nM | 910 nM | – | – | – | – | – | – | – | – | – |
| CC(=O)c1c([S+]([O-])Cc2ccc(F)c(Cl)c2)[nH]c2c(Br)ccc(Cl)c2c1=O (stereo not drawn) [Compound 31, 3-acetyl-8-bromo-5-chloro-2-((3-chloro-4-fluorobenzyl)sulfinyl)quinolin-4(1H)-one] | 820 nM | 1180 nM | 1420 nM | 1250 nM | > 10000 nM | > 2000 nM | 1660 nM | 1350 nM | 1420 nM | – | – | – | – | – | – | – | – | – | – |
| CC(=O)c1c([S+]([O-])Cc2c(F)cccc2Cl)[nH]c2c(Br)ccc(Cl)c2c1=O (stereo not drawn) [Compound 74, 3-acetyl-8-bromo-5-chloro-2-((2-chloro-6-fluorobenzyl)sulfinyl)quinolin-4(1H)-one] | 1020 nM | 1610 nM | 2010 nM | 1530 nM | > 10000 nM | > 2000 nM | > 2000 nM | 1770 nM | > 2000 nM | 880 nM | – | – | – | – | – | – | – | – | – |
| CC(=O)c1c([S+]([O-])Cc2ccc(C(F)(F)F)cc2)[nH]c2c(Br)ccc(Cl)c2c1=O (stereo not drawn) [Compound 70, 3-acetyl-8-bromo-5-chloro-2-((4-(trifluoromethyl)benzyl)sulfinyl)quinolin-4(1H)-one] | 920 nM | 1320 nM | 1540 nM | 1190 nM | > 10000 nM | > 2000 nM | > 2000 nM | 1710 nM | 1630 nM | 1030 nM | – | – | – | – | – | – | – | – | – |
| CC(=O)c1c([S+]([O-])Cc2ccc(OC(F)(F)F)cc2)[nH]c2c(Br)ccc(Cl)c2c1=O (stereo not drawn) [Compound 71, 3-acetyl-8-bromo-5-chloro-2-((4-(trifluoromethoxy)benzyl)sulfinyl)quinolin-4(1H)-one] | 1150 nM | 1730 nM | > 2000 nM | 1620 nM | > 10000 nM | > 2000 nM | > 2000 nM | > 2000 nM | > 2000 nM | 1180 nM | – | – | – | – | – | – | – | – | – |
| CC(=O)c1c([S+]([O-])Cc2ccc(F)cc2F)[nH]c2c(Br)ccc(Cl)c2c1=O (stereo not drawn) [Compound 29, 3-acetyl-8-bromo-5-chloro-2-((2,4-difluorobenzyl)sulfinyl)quinolin-4(1H)-one] | 870 nM | 1210 nM | 1710 nM | 1400 nM | > 10000 nM | > 2000 nM | > 2000 nM | 1380 nM | 1570 nM | 1030 nM | – | – | – | – | – | – | – | – | – |
| CC(=O)c1c([S+]([O-])Cc2ccc([S+]([O-])C(F)(F)F)cc2)[nH]c2c(Br)ccc(Cl)c2c1=O (stereo not drawn) [Compound 64, 3-acetyl-8-bromo-5-chloro-2-((4-((trifluoromethyl)sulfinyl)benzyl)sulfinyl)quinolin-4(1H)-one] | – | 1370 nM | 1630 nM | 1360 nM | > 10000 nM | > 2000 nM | > 2000 nM | 1650 nM | 1690 nM | 870 nM | – | – | – | – | – | – | – | – | – |
| CC(=O)c1c([S+]([O-])Cc2cc(F)cc(S(F)(F)(F)(F)F)c2)[nH]c2c(Br)ccc(Cl)c2c1=O (stereo not drawn) [Compound 76, 3-acetyl-8-bromo-5-chloro-2-((3-fluoro-5-(pentafluoro--sulfanyl)benzyl)sulfinyl)quinolin-4(1H)-one] | 1090 nM | 1570 nM | > 2000 nM | 1640 nM | > 10000 nM | > 2000 nM | > 2000 nM | > 2000 nM | 1520 nM | 1230 nM | – | – | – | – | – | – | – | – | – |
| COc1cc(S(F)(F)(F)(F)F)ccc1C[S+]([O-])c1[nH]c2c(Br)ccc(Cl)c2c(=O)c1C(C)=O (stereo not drawn) [Compound 75, 3-acetyl-8-bromo-5-chloro-2-((2-methoxy-4-(pentafluoro--sulfanyl)benzyl)sulfinyl)quinolin-4(1H)-one] | 880 nM | 1250 nM | 1780 nM | 1390 nM | > 10000 nM | > 2000 nM | 1660 nM | 1760 nM | 1320 nM | 1030 nM | – | – | – | – | – | – | – | – | – |
| CC(=O)c1c([S+]([O-])Cc2c(F)c(F)c(F)c(F)c2F)[nH]c2c(Br)ccc(Cl)c2c1=O (stereo not drawn) [Compound 78, 3-acetyl-8-bromo-5-chloro-2-(((perfluorophenyl)methyl)sulfinyl)quinolin-4(1H)-one] | 1280 nM | 1930 nM | > 2000 nM | 1590 nM | > 10000 nM | > 2000 nM | > 2000 nM | 1760 nM | 1500 nM | – | – | – | – | – | – | – | – | – | – |
| COC(=O)c1ccc(C[S+]([O-])c2[nH]c3c(Cl)ccc(Cl)c3c(=O)c2C(C)=O)o1 (stereo not drawn) [Compound 89, methyl 5-(((3-acetyl-5,8-dichloro-4-oxo-1,4-dihydroquinolin-2-yl)sulfinyl)methyl)furan-2-carboxylate] | – | – | – | – | – | – | – | – | – | 1590 nM | 1640 nM | 1590 nM | > 2000 nM | > 2000 nM | > 10000 nM | > 2000 nM | 1720 nM | > 2000 nM | 1700 nM |
| CC(=O)c1c([S+]([O-])Cc2cccc(F)c2)[nH]c2c(Br)ccc(Cl)c2c1=O (stereo not drawn) [Compound 50, 3-acetyl-8-bromo-5-chloro-2-((3-fluorobenzyl)sulfinyl)quinolin-4(1H)-one] | 990 nM | 1390 nM | 1990 nM | 1590 nM | > 10000 nM | > 2000 nM | > 2000 nM | 1580 nM | 1770 nM | 1350 nM | – | – | – | – | – | – | – | – | – |
| CC(=O)c1c([S+]([O-])Cc2ccc(I)cc2)[nH]c2c(Cl)ccc(Cl)c2c1=O (stereo not drawn) [Compound 83, 3-acetyl-5,8-dichloro-2-((4-iodobenzyl)sulfinyl)quinolin-4(1H)-one] | – | – | – | – | – | – | – | – | – | 1510 nM | 1380 nM | 1800 nM | 1880 nM | 1620 nM | > 10000 nM | > 2000 nM | 1030 nM | > 2000 nM | > 2000 nM |
| CC(=O)c1c([S+]([O-])Cc2ccc([N+](=O)[O-])cc2)[nH]c2c(Cl)ccc(Cl)c2c1=O (stereo not drawn) [Compound 57, 3-acetyl-5,8-dichloro-2-((4-nitrobenzyl)sulfinyl)quinolin-4(1H)-one] | > 2000 nM | > 2000 nM | > 2000 nM | > 2000 nM | > 10000 nM | > 2000 nM | > 2000 nM | > 2000 nM | > 2000 nM | > 2000 nM | – | – | – | – | – | – | – | – | – |
| CC(=O)c1c([S+]([O-])Cc2ccc(C#N)cc2)[nH]c2c(Br)ccc(Cl)c2c1=O (stereo not drawn) [Compound 73, 4-(((3-acetyl-8-bromo-5-chloro-4-oxo-1,4-dihydroquinolin-2-yl)sulfinyl)methyl)benzonitrile] | 1330 nM | 1860 nM | > 2000 nM | > 2000 nM | > 10000 nM | > 2000 nM | > 2000 nM | > 2000 nM | > 2000 nM | 1420 nM | – | – | – | – | – | – | – | – | – |
